{"source": "patent US8809537B2", "about": "“N-ethyl-4-hydroxyl-1-methyl-5-(methyl(2,3,4,5,6-pentahydroxyhexyl)amino)-2-oxo-N-phenyl-1,2-dihydroquinoline-3-carboxamide” (Teva Pharmaceutical Industries, Ltd., priority 2012, dated 2014)", "key": {"[1]": {"conditions": "cited from earlier work"}, "[2]": {"experiment": "formation of MEG-LAQ in LAQ formulation containing meglumine (stability)", "format": "physicochemical", "conditions": "meglumine used in LAQ formulation", "experimental": "MEG-LAQ may form under certain conditions when meglumine is used in LAQ formulation. For example, MEG-LAQ is formed at 40° C. and 75% Relative Humidity (accelerated conditions). MEG-LAQ is also formed at room temperature at <0.1%."}, "[3]": {"test_system": "acute experimental autoimmune encephalomyelitis (aEAE) model", "conditions": "U.S. Pat. No. 6,077,851; cited from earlier work"}, "relapsing MS": {"test_system": "relapsing MS", "conditions": "Polman et al. 2005; cited from earlier work"}}}
{"compound": "CCN(C(=O)c1c(O)c2c(Cl)cccc2n(C)c1=O)c1ccccc1", "note": "[Laquinimod sodium]", "values": [{"measurement": "oral bioavailability", "setting": "[1]", "result": "high oral bioavailability"}]}
{"compound": "CCN(C(=O)c1c(O)c2c(N(C)C[C@H](O)[C@@H](O)[C@H](O)[C@H](O)CO)cccc2n(C)c1=O)c1ccccc1", "note": "[MEG-LAQ, N-ethyl-4-hydroxyl-1-methyl-5-(methyl(2,3,4,5,6-pentahydroxyhexyl)amino)-2-oxo-N-phenyl-1,2-dihydroquinoline-3-carboxamide]", "values": [{"measurement": "MEG-LAQ formed in LAQ formulation", "setting": "[2]; 40° C. and 75% Relative Humidity (accelerated conditions)", "result": "formed"}, {"measurement": "MEG-LAQ formed in LAQ formulation", "setting": "[2]; room temperature", "result": "< 0.1", "unit": "%"}]}
{"compound": "CCN(C(=O)c1c(O)c2c(Cl)cccc2n(C)c1=O)c1ccccc1", "note": "[Laquinimod, N-ethyl-N-phenyl-1,2-dihydro-4-hydroxy-5-chloro-1-methyl-2-oxoquinoline-3-carboxamide]", "values": [{"measurement": "effectiveness in the aEAE model", "setting": "[3]", "result": "effective"}, {"measurement": "development of active MRI lesions", "setting": "relapsing MS", "result": "can reduce development of active MRI lesions"}]}
